Values quoted from earlier work as cited in US20090275622A1, “NIZATIDINE FORMULATIONS” (priority 2008, published 2009).

Conditions: crystalline solid

Solubility in water: soluble in water
Compound: CN/C(=C\[N+](=O)[O-])NCCSCc1csc(CN(C)C)n1 [Nizatidine, N-[2-[[[2-[(dimethylamino)methyl]-4-thiazolyl]methyl]thio]ethyl]-N′-methyl-2-nitro-1,1-ethenediamine]
